{
  "source": "paper PMC6155273",
  "about": "“Antiprotozoal Activity of Triazole Derivatives of Dehydroabietic Acid and Oleanolic Acid” (Molecules : A Journal of Synthetic Chemistry and Natural …, 2017)",
  "data": [
    {"test_system": "T. cruzi epimastigotes", "assay": "Antiepimastigote activity, T. cruzi CL-B5 lacZ (CPRG)", "assay_type": "cell-based, Trypanosoma cruzi", "conditions": "Trypanosoma cruzi, clone CL-B5, 72 h", "experimental": "(§1) For in vitro studies of T. cruzi, the clone CL-B5 was used (donated by Faculty of Pharmacy, Complutense University, Madrid, Spain). Parasites were stably transfected with the Escherichia coli β-galactosidase gene (lacZ). Epimastigotes were grown at 28 °C in liver infusion tryptose broth (Difco, Detroit, MI, USA) with 10% fetal bovine serum (FBS) (Gibco, Carlsbad, CA, USA), penicillin (Ern S.A., Barcelona, Spain), and streptomycin (Reig Jofré S.A., Barcelona, Spain), as described previously, and harvested during the exponential growth phase. Briefly, the screening assay was performed in 96-well microplates (Sarstedt, Inc., Newton, NC, USA) with cultures that had not reached the stationary phase. Epimastigotes were seeded at 2 × 10^5 parasites/mL in 200 µL growth media. The plates were then incubated with the respective compounds at 28 °C for 72 h; afterwards, 50 µL of chlorophenol red-β-D-galactopyranoside (CPRG) solution was added, resulting in a final concentration of 200 µM. The plates were incubated at 37 °C for an additional 4 h and then read at 595 nm. Each concentration was tested in triplicate. The efficacy of each compound was estimated by calculating the IC50 values. These values were calculated by the sigmoidal dose–response curve adjustment using the statistical software program Graph-Pad Prims 3.0 (GraphPhad, San Diego, CA, USA). Benznidazole was used as the reference drug.", "units": {"IC50": "µg/mL"}, "values": [
      {"smiles": "COc1ccc(-n2cc(CCCCC(=O)OC[C@]3(C)CCC[C@]4(C)c5ccc(C(C)C)cc5CCC34)nn2)cc1", "note": "(stereo partly shown) [Compound 12]", "IC50": "> 256"},
      {"smiles": "C#CCCCC(=O)O[C@H]1CC[C@@]2(C)C(CC[C@]3(C)C2CC=C2[C@@H]4CC(C)(C)CC[C@]4(C(=O)O)CC[C@]23C)C1(C)C", "note": "(stereo partly shown) [Compound 19]", "IC50": "> 256"},
      {"smiles": "CC1(C)CC[C@]2(C(=O)O)CC[C@]3(C)C(=CCC4[C@@]5(C)CC[C@H](OC(=O)CCCc6cn(CSc7ccccc7)nn6)C(C)(C)C5CC[C@]43C)[C@@H]2C1", "note": "(stereo partly shown) [Compound 33]", "IC50": "> 256"},
      {"smiles": "COC(=O)[C@]12CCC(C)(C)C[C@H]1C1=CCC3[C@@]4(C)CC[C@H](OC(=O)CCCc5cn(S(=O)(=O)c6ccc(C)cc6)nn5)C(C)(C)C4CC[C@@]3(C)[C@]1(C)CC2", "note": "(stereo partly shown) [Compound 32]", "IC50": "> 256"},
      {"smiles": "COC(=O)[C@]12CCC(C)(C)C[C@H]1C1=CCC3[C@@]4(C)CC[C@H](OC(=O)CCCc5cn(CSc6ccccc6)nn5)C(C)(C)C4CC[C@@]3(C)[C@]1(C)CC2", "note": "(stereo partly shown) [Compound 34]", "IC50": "> 256"},
      {"smiles": "CC(C)c1ccc2c(c1)CC[C@H]1[C@](C)(C(=O)O)CCC[C@]21C", "note": "[DHA, Dehydroabietic acid]", "IC50": 212}
    ]},
    {"test_system": "T. cruzi epimastigotes", "assay": "Antiepimastigote activity, T. cruzi CL-B5 lacZ (CPRG)", "assay_type": "cell-based, Trypanosoma cruzi", "conditions": "clone CL-B5, 72 h", "experimental": "as §1", "units": {"Antiepimastigote Activity of T. cruzi, IC50": "µg/mL"}, "values": [
      {"smiles": "CC(C)c1ccc2c(c1)CC[C@H]1[C@](C)(CO)CCC[C@]21C", "note": "[Dehydroabietinol, dehydroabietinol, reference compound]", "Antiepimastigote Activity of T. cruzi, IC50": 66}
    ]},
    {"test_system": "L. braziliensis promastigotes", "assay": "Leishmanicidal activity on L. braziliensis promastigotes (resazurin)", "assay_type": "cell-based, Leishmania braziliensis", "conditions": "Leishmania braziliensis, 48 h, read-out: Leishmanicidal Activity on Promastigotes, L. braziliensis, IC50", "experimental": "(§2) Culture of L. braziliensis (MHOM/BR/75/M2904), and L. infantum (MHOM/FR/91/LEM2259V) was obtained from the Facultad de Farmacia (Universidad Complutense de, Madrid, Spain). The maintenance of the strains, the form of cultivation, and the isolation of shape promastigota were performed following the procedures described by Roldos et al.. The promastigotes were grown at 22 °C in Schneider’s Drosophila medium supplemented with 20% FBS. The assay was performed using a modification of a previous method. Promastigotes (2 × 10^6 parasites/well) were cultured in 96-well plastic plates. Compounds were dissolved in dimethylsulfoxide (DMSO). Different dilutions of the compounds with a final volume up to 200 µL were added. After 48 h at 26 °C, 20 µL of a 2 mM resazurin solution was added, and the oxidation-reduction was quantified at 570 and 600 nm. The solution of resazurin was prepared at 2.5 mM in phosphate buffered solution (PBS), pH 7.4, and filtered through 0.22 µm prior to use. All tests were carried out in triplicate. Resazurin sodium salt was obtained from Sigma-Aldrich (St. Louis, MO, USA) and stored at 4 °C protected from light. The efficacy of each compound was estimated by calculating the IC50 values.", "units": {"IC50": "µg/mL"}, "values": [
      {"smiles": "COc1ccc(-n2cc(CCCCC(=O)OC[C@]3(C)CCC[C@]4(C)c5ccc(C(C)C)cc5CCC34)nn2)cc1", "note": "(stereo partly shown) [Compound 12]", "IC50": "> 256"},
      {"smiles": "CC1(C)CC[C@]2(C(=O)O)CC[C@]3(C)C(=CCC4[C@@]5(C)CC[C@H](OC(=O)CCCc6cn(CSc7ccccc7)nn6)C(C)(C)C5CC[C@]43C)[C@@H]2C1", "note": "(stereo partly shown) [Compound 33]", "IC50": "> 256"},
      {"smiles": "COC(=O)[C@]12CCC(C)(C)C[C@H]1C1=CCC3[C@@]4(C)CC[C@H](OC(=O)CCCc5cn(S(=O)(=O)c6ccc(C)cc6)nn5)C(C)(C)C4CC[C@@]3(C)[C@]1(C)CC2", "note": "(stereo partly shown) [Compound 32]", "IC50": "> 256"},
      {"smiles": "COC(=O)[C@]12CCC(C)(C)C[C@H]1C1=CCC3[C@@]4(C)CC[C@H](OC(=O)CCCc5cn(CSc6ccccc6)nn5)C(C)(C)C4CC[C@@]3(C)[C@]1(C)CC2", "note": "(stereo partly shown) [Compound 34]", "IC50": "> 256"}
    ]},
    {"test_system": "L. braziliensis promastigotes", "assay": "Leishmanicidal activity on L. braziliensis promastigotes (resazurin)", "assay_type": "cell-based, Leishmania braziliensis", "conditions": "Leishmania braziliensis; promastigotes, 48 h; read-out: Leishmanicidal Activity on Promastigotes, L. braziliensis, IC50", "experimental": "as §2", "units": {"IC50": "µg/mL"}, "values": [
      {"smiles": "C#CCCCC(=O)O[C@H]1CC[C@@]2(C)C(CC[C@]3(C)C2CC=C2[C@@H]4CC(C)(C)CC[C@]4(C(=O)O)CC[C@]23C)C1(C)C", "note": "(stereo partly shown) [Compound 19]", "IC50": 109},
      {"smiles": "N=C(N)c1ccc(OCCCCCOc2ccc(C(=N)N)cc2)cc1", "note": "[Pentamidine, reference compound]", "IC50": 3.3},
      {"smiles": "CC(C)c1ccc2c(c1)CC[C@H]1[C@](C)(C(=O)O)CCC[C@]21C", "note": "[DHA, Dehydroabietic acid]", "IC50": 44}
    ]},
    {"test_system": "L. braziliensis promastigotes", "assay": "Leishmanicidal activity on L. braziliensis promastigotes (resazurin)", "assay_type": "cell-based, Leishmania braziliensis", "conditions": "promastigotes, 48 h", "experimental": "as §2", "units": {"Leishmanicidal Activity on Promastigotes, L. braziliensis, IC50": "µg/mL"}, "values": [
      {"smiles": "CC(C)c1ccc2c(c1)CC[C@H]1[C@](C)(CO)CCC[C@]21C", "note": "[Dehydroabietinol, dehydroabietinol, reference compound]", "Leishmanicidal Activity on Promastigotes, L. braziliensis, IC50": 63}
    ]},
    {"test_system": "L. infantum promastigotes", "assay": "Leishmanicidal activity on L. infantum promastigotes (resazurin)", "assay_type": "cell-based, Leishmania infantum", "conditions": "Leishmania infantum, 48 h, read-out: Leishmanicidal Activity on Promastigotes, L. infantum, IC50", "experimental": "as §2", "units": {"IC50": "µg/mL"}, "values": [
      {"smiles": "COc1ccc(-n2cc(CCCCC(=O)OC[C@]3(C)CCC[C@]4(C)c5ccc(C(C)C)cc5CCC34)nn2)cc1", "note": "(stereo partly shown) [Compound 12]", "IC50": "> 256"},
      {"smiles": "CC1(C)CC[C@]2(C(=O)O)CC[C@]3(C)C(=CCC4[C@@]5(C)CC[C@H](OC(=O)CCCc6cn(CSc7ccccc7)nn6)C(C)(C)C5CC[C@]43C)[C@@H]2C1", "note": "(stereo partly shown) [Compound 33]", "IC50": "> 256"},
      {"smiles": "COC(=O)[C@]12CCC(C)(C)C[C@H]1C1=CCC3[C@@]4(C)CC[C@H](OC(=O)CCCc5cn(S(=O)(=O)c6ccc(C)cc6)nn5)C(C)(C)C4CC[C@@]3(C)[C@]1(C)CC2", "note": "(stereo partly shown) [Compound 32]", "IC50": "> 256"},
      {"smiles": "COC(=O)[C@]12CCC(C)(C)C[C@H]1C1=CCC3[C@@]4(C)CC[C@H](OC(=O)CCCc5cn(CSc6ccccc6)nn5)C(C)(C)C4CC[C@@]3(C)[C@]1(C)CC2", "note": "(stereo partly shown) [Compound 34]", "IC50": "> 256"}
    ]},
    {"test_system": "L. infantum promastigotes", "assay": "Leishmanicidal activity on L. infantum promastigotes (resazurin)", "assay_type": "cell-based, Leishmania infantum", "conditions": "Leishmania infantum; promastigotes, 48 h; read-out: Leishmanicidal Activity on Promastigotes, L. infantum, IC50", "experimental": "as §2", "units": {"IC50": "µg/mL"}, "values": [
      {"smiles": "C#CCCCC(=O)O[C@H]1CC[C@@]2(C)C(CC[C@]3(C)C2CC=C2[C@@H]4CC(C)(C)CC[C@]4(C(=O)O)CC[C@]23C)C1(C)C", "note": "(stereo partly shown) [Compound 19]", "IC50": 155},
      {"smiles": "N=C(N)c1ccc(OCCCCCOc2ccc(C(=N)N)cc2)cc1", "note": "[Pentamidine, reference compound]", "IC50": 3.3},
      {"smiles": "CC(C)c1ccc2c(c1)CC[C@H]1[C@](C)(C(=O)O)CCC[C@]21C", "note": "[DHA, Dehydroabietic acid]", "IC50": 72}
    ]},
    {"test_system": "L. infantum promastigotes", "assay": "Leishmanicidal activity on L. infantum promastigotes (resazurin)", "assay_type": "cell-based, Leishmania infantum", "conditions": "promastigotes, 48 h", "experimental": "as §2", "units": {"Leishmanicidal Activity on Promastigotes, L. infantum, IC50": "µg/mL"}, "values": [
      {"smiles": "CC(C)c1ccc2c(c1)CC[C@H]1[C@](C)(CO)CCC[C@]21C", "note": "[Dehydroabietinol, dehydroabietinol, reference compound]", "Leishmanicidal Activity on Promastigotes, L. infantum, IC50": 40}
    ]},
    {"test_system": "not listed separately", "assay": "Cytotoxicity on NCTC-Clone 929 fibroblasts (resazurin)", "assay_type": "cell-based", "conditions": "mouse", "experimental": "The cell line used was NCTC-Clone 929, which was grown in Minimal Essential Medium (Sigma) supplemented with 10% heat-inactivated FBS, penicillin G (100 U/mL), and streptomycin (100 µg/mL). Cell cultures were maintained at 37 °C in a humidified 5% CO2 atmosphere. The procedure for cell viability measurement was evaluated with resazurin by a colorimetric method. The cells were plated in 96-microtiter plates at 3 × 10^4 cells per well in a 100 µL growth medium. The cells were grown overnight at 37 °C, 5% CO2. Thereafter, the medium was removed and the compounds were added in a 200 µL medium for 24 h. After incubation, 20 µL of a 2 mM resazurin solution was added to each well. The plates were incubated for 3 h to allow optimal oxidation-reduction. The reduction of resazurin was determined by dual wavelength absorbance measurement at 490 and 595 nm. Background was subtracted. Each concentration was assayed three times. Medium and drug controls were used in each test as blanks.", "units": {"IC50 at 24 h": "µg/mL"}, "values": [
      {"smiles": "COc1ccc(-n2cc(CCCCC(=O)OC[C@]3(C)CCC[C@]4(C)c5ccc(C(C)C)cc5CCC34)nn2)cc1", "note": "(stereo partly shown) [Compound 12]", "IC50 at 24 h": "> 256"},
      {"smiles": "C#CCCCC(=O)O[C@H]1CC[C@@]2(C)C(CC[C@]3(C)C2CC=C2[C@@H]4CC(C)(C)CC[C@]4(C(=O)O)CC[C@]23C)C1(C)C", "note": "(stereo partly shown) [Compound 19]", "IC50 at 24 h": "> 256"}
    ]}
  ]
}
